This experiment deals with gelatinase B (Homo sapiens, UniProt P14780). In words: Gelatinase B inhibiting activity of synovial fluid recovered after intraarticular administration. Conditions: Fig. 7. The class given is in vivo, rats. Also noted: purchased Roche Diagnostics Co., Ltd. The method, then: The following agents (1 to 3) were administered into right knee joints of 9-10 week old rats (n=4 to 10) and the animals were sacrificed at time intervals; the joint cavities were washed with a total 0.5 ml of a physiological saline to recover a synovial fluid. • Agent 1: 30 nmol of compound 1 • Agent 2: a mixture of 30 nmol of compound 1 and 0.3 mg of HA • Agent 3: 0.3 mg of "conjugate 4" (having compound 1 bound in an amount equivalent to 30 nmol)
By using a kit for measuring gelatinase activity manufactured by Roche Diagnostics, the inhibiting activity of the synovial fluid against gelatinase B was calculated according to the following formula. Gelatinase B Inhibition Activity (%) = [(Enzymatic Activity in the Absence of Synovial Fluid - Enzymatic Activity in the Presence of Added Synovial Fluid)/Enzymatic Activity in the Absence of Synovial Fluid] x 100 [formula]
The results were shown by a mean value ± standard deviation. The gelatinase B inhibiting activity of the synovial fluid from the group administered compound 1 alone and the group administered the mixture of compound 1 and HA decreased to 20% two hours after administration and to less than 5% 17 hours after administration while in the group administered "conjugate 4" about 50% of the gelatinase B inhibiting activity remained 17 hours after administration.

Structures are written as SMILES.

Sequence of gelatinase B (P14780 94-707, species assumed): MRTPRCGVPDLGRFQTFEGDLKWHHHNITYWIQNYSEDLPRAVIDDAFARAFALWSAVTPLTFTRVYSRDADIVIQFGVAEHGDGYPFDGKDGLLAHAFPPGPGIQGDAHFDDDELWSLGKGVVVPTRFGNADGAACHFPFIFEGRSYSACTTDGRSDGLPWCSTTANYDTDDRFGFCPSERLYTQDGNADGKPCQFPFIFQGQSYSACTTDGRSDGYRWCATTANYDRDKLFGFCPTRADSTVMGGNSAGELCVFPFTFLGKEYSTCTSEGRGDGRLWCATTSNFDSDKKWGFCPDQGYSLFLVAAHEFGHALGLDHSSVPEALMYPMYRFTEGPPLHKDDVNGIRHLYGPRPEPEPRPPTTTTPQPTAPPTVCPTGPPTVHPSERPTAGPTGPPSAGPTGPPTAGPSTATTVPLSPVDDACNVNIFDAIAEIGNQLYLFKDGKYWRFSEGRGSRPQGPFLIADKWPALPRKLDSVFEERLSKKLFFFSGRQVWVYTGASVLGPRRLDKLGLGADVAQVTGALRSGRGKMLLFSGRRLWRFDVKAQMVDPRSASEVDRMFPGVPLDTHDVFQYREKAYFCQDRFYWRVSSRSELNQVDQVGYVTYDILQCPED

As for `CNC(=O)[C@H](Cc1c[nH]c2ccccc12)NC(=O)C(CC(=O)NO)CC(C)C` (stereo partly drawn) [compound 1, N-[2-isobutyl-3-(N'-hydroxycarbonylamido)propanoyl]-L-tryptophan methylamide], the “gelatinase B inhibiting activity of the synovial fluid” value (17 hours after administration into rat right knee joint) is listed as “less than 5%” and the “gelatinase B inhibiting activity of the synovial fluid” value (two hours after administration into rat right knee joint) amounted to 20%.
